# Measurements as given in patent publication US20120172351A1, “NOVEL FUSED CYCLIC COMPOUND AND USE THEREOF” (priority 2009, published 2012).
# Molecular target: T1, human derived GPR40 (Homo sapiens, UniProt O14842)
# T1 construct: expressed in transfected cells
# Assay: Agonist action on human derived GPR40: change of intracellular calcium concentration in CHO cells (FLIPRtetra)
# Type: cell-based
# Conditions: agonist activity of compound at 1 μM, relative to 10 μM γ linolenic acid as 100%, wave peak height; CHO cells stably expressing human GPR40
# Procedure: The CHO cell lines that stably expressed human derived GPR40 were used for the determination of the agonist activity. Unless particularly specified, the CHO cell lines were cultured in an α-MEM medium (Wako Pure Chemical Industries, Ltd.) containing 10% dialyzed fetal bovine serum (TRA Thermo Electron).
# The cells cultured almost to confluent on the day before assay were rinsed with PBS (Invitrogen), detached with 0.5 mM EDTA (Wako Pure Chemical Industries, Ltd.), and recovered by centrifugation. The obtained cells were counted, diluted to 2×10^5 cells per 1 mL medium, dispensed by 40 μL per well to a 384 well black clear bottomplate (PE Biosystems), and cultured overnight in a CO2 incubator. Various test compounds were added to CHO cells prepared as mentioned above, and change of intracellular calcium concentration was measured using FLIPRtetra (Molecular Device). For the measurement by this device, a Calcium 4 assay kit (Molecular Devices: R8142) was used.
# First, fatty acid free BSA at the final concentration of 0.1% was added to the buffer attached to the kit to prepare an assay buffer. Using the assay buffer, a loading solution with Fluo4 was prepared such that the final concentration of fatty acid free BSA was 0.1% and the final concentration of probenecid was 625 μM. On the other hand, a test compound was diluted with the assay buffer to a given concentration, and dispensed to the polypropylene 384-well plate (sample plate). The medium was removed from the cell culture plate, and the loading solution with Fluo4 was dispensed by 25 μL. After culture in a CO2 incubator at 37° C. for 40 min, a sample plate and a cell plate were simultaneously set on the FLIPRtetra, various test compounds were added by 25 μL according to the program of the device, and change of intracellular calcium concentration was measured. The agonist activity of each compound at 1 μM was calculated as a relative activity value to the activity of 10 μM γ linolenic acid as 100% from the wave peak height.
# T1 sequence (O14842 whole entry): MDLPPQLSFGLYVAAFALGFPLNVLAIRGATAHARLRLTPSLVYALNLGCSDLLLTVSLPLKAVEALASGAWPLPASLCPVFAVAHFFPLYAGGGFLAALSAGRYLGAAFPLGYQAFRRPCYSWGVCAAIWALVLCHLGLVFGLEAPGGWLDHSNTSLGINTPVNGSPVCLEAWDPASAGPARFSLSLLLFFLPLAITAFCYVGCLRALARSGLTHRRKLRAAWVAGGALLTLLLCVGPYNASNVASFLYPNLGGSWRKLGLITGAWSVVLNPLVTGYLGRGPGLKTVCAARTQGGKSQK
row,SMILES,activity (%)
1,"Cc1cc(-c2cccc3c2OC[C@H]3Nc2ccc3c(c2)OC[C@H]3CC(=O)O)c(C)s1 [Example 3, [(3S)-6-{[(3S)-7-(2,5-dimethylthiophen-3-yl)-2,3-dihydro-1-benzofuran-3-yl]amino}-2,3-dihydro-1-benzofuran-3-yl]acetic acid]",128
2,"CCc1nc2ccccc2n1-c1cccc2c1OC[C@H]2Nc1ccc2c(c1)OC[C@H]2CC(=O)[O-].[Na+] [Example 19, sodium [(3S)-6-{[(3S)-7-(2-ethyl-1H-benzimidazol-1-yl)-2,3-dihydro-1-benzofuran-3-yl]amino}-2,3-dihydro-1-benzofuran-3-yl]acetate]",129
3,"CCOc1nc2ccc(F)cc2n1-c1cccc2c1OC[C@H]2Nc1ccc2c(c1)OC[C@H]2CC(=O)[O-].[Na+] [Example 25, sodium [(3S)-6-{[(3S)-7-(2-ethoxy-6-fluoro-1H-benzimidazol-1-yl)-2,3-dihydro-1-benzofuran-3-yl]amino}-2,3-dihydro-1-benzofuran-3-yl]acetate]",129
4,"CCc1nc2ccc(F)c(F)c2n1-c1cccc2c1OC[C@H]2Nc1ccc2c(c1)OC[C@H]2CC(=O)[O-].[Na+] [Example 31, sodium [(3S)-6-{[(3S)-7-(2-ethyl-6,7-difluoro-1H-benzimidazol-1-yl)-2,3-dihydro-1-benzofuran-3-yl]amino}-2,3-dihydro-1-benzofuran-3-yl]acetate]",127
5,"CCOc1nc2c(F)cc(F)cc2n1-c1cccc2c1OC[C@H]2Nc1ccc2c(c1)OC[C@H]2CC(=O)[O-].[Na+] [Example 37, sodium [(3S)-6-{[(3S)-7-(2-ethoxy-4,6-difluoro-1H-benzimidazol-1-yl)-2,3-dihydro-1-benzofuran-3-yl]amino}-2,3-dihydro-1-benzofuran-3-yl]acetate]",117
6,"Cc1nn(C(F)F)c(C)c1-c1cccc2c1OCC2Nc1ccc2c(c1)OC[C@H]2CC(=O)O (stereo partly drawn) [Example 67, [(3S)-6-({7-[1-(difluoromethyl)-3,5-dimethyl-1H-pyrazol-4-yl]-2,3-dihydro-1-benzofuran-3-yl}amino)-2,3-dihydro-1-benzofuran-3-yl]acetic acid]",111
7,"Cc1nc(N2CCOCC2)nc(C)c1-c1cccc2c1OC[C@H]2Nc1ccc2c(c1)OC[C@H]2CC(=O)O [Example 77-2, [(3S)-6-({(3S)-7-[4,6-dimethyl-2-(morpholin-4-yl)pyrimidin-5-yl]-2,3-dihydro-1-benzofuran-3-yl}amino)-2,3-dihydro-1-benzofuran-3-yl]acetic acid]",132
8,"O=C([O-])C[C@@H]1COc2cc(N[C@@H]3COc4c3cccc4N3CCOc4ccccc43)ccc21.[Na+] [Example 86, sodium [(3S)-6-{[(3S)-7-(2,3-dihydro-4H-1,4-benzooxazin-4-yl)-2,3-dihydro-1-benzofuran-3-yl]amino}-2,3-dihydro-1-benzofuran-3-yl]acetate]",128
9,"CCN(c1ccc(C#N)cc1F)c1cccc2c1OC[C@H]2Nc1ccc2c(c1)OC[C@H]2CC(=O)O [Example 89, [(3S)-6-({(3S)-7-[(4-cyano-2-fluorophenyl)(ethyl)amino]-2,3-dihydro-1-benzofuran-3-yl}amino)-2,3-dihydro-1-benzofuran-3-yl]acetic acid]",129
10,"Cc1nc2ccc(OCC(F)(F)F)cc2n1-c1cccc2c1OC[C@H]2Nc1ccc2c(c1)OC[C@H]2CC(=O)[O-].[Na+] [Example 99, sodium [(3S)-6-({(3S)-7-[2-methyl-6-(2,2,2-trifluoroethoxy)-1H-benzimidazol-1-yl]-2,3-dihydro-1-benzofuran-3-yl}amino)-2,3-dihydro-1-benzofuran-3-yl]acetate]",123
11,"Cc1nn(C(F)F)c(C)c1-c1cccc(CNc2ccc3c(c2)OC[C@H]3CC(=O)O)c1C [Example 109, [(3S)-6-({3-[1-(difluoromethyl)-3,5-dimethyl-1H-pyrazol-4-yl]-2-methylbenzyl}amino)-2,3-dihydro-1-benzofuran-3-yl]acetic acid]",122
12,"Cc1nc(OC(F)F)nc(C)c1-c1cccc(CNc2ccc3c(c2)OC[C@H]3CC(=O)O)c1C [Example 114, [(3S)-6-({3-[2-(difluoromethoxy)-4,6-dimethylpyrimidin-5-yl]-2-methylbenzyl}amino)-2,3-dihydro-1-benzofuran-3-yl]acetic acid]",132
13,"Cc1cc(-c2cccc(CNc3ccc4c(c3)OC[C@H]4CC(=O)O)c2F)c(C)s1 [Example 121, [(3S)-6-{[3-(2,5-dimethylthiophen-3-yl)-2-fluorobenzyl]amino}-2,3-dihydro-1-benzofuran-3-yl]acetic acid]",129
14,"Cc1c(CNc2ccc3c(c2)OC[C@H]3CC(=O)O)cccc1-n1c(C)nc2cc(C(F)(F)F)ccc21 [Example 131, [(3S)-6-({2-methyl-3-[2-methyl-5-(trifluoromethyl)-1H-benzimidazol-1-yl]benzyl}amino)-2,3-dihydro-1-benzofuran-3-yl]acetic acid]",129
15,"COc1ccc2c(c1)nc(C1CC1)n2-c1cccc(CNc2ccc3c(c2)OC[C@H]3CC(=O)O)c1C [Example 149, [(3S)-6-{[3-(2-cyclopropyl-5-methoxy-1H-benzimidazol-1-yl)-2-methylbenzyl]amino}-2,3-dihydro-1-benzofuran-3-yl]acetic acid]",90
16,"Cc1c(CNc2ccc3c(c2)OC[C@H]3CC(=O)O)cccc1-n1c(C)nc2c(C)cccc21 [Example 153, [(3S)-6-{[3-(2,4-dimethyl-1H-benzimidazol-1-yl)-2-methylbenzyl]amino}-2,3-dihydro-1-benzofuran-3-yl]acetic acid]",111
17,"CCc1nc2ccc(Cl)cc2n1-c1cccc(CNc2ccc3c(c2)OC[C@H]3CC(=O)[O-])c1C.[Na+] [Example 173, sodium [(3S)-6-{[3-(6-chloro-2-ethyl-1H-benzimidazol-1-yl)-2-methylbenzyl]amino}-2,3-dihydro-1-benzofuran-3-yl]acetate]",121
18,"CCOc1nc2c(OCC(F)(F)F)cccc2n1-c1cccc(CNc2ccc3c(c2)OC[C@H]3CC(=O)O)c1C [Example 180, [(3S)-6-({3-[2-ethoxy-4-(2,2,2-trifluoroethoxy)-1H-benzimidazol-1-yl]-2-methylbenzyl}amino)-2,3-dihydro-1-benzofuran-3-yl]acetic acid]",125
19,"Cc1nc2ccccn2c1-c1cccc(CNc2ccc3c(c2)OC[C@H]3CC(=O)O)c1C [Example 201, [(3S)-6-{[2-methyl-3-(2-methylimidazo[1,2-a]pyridin-3-yl)benzyl]amino}-2,3-dihydro-1-benzofuran-3-yl]acetic acid]",124
20,"COc1ccc(-c2c(C(F)(F)F)ccc(CNc3ccc4c(c3)OC[C@H]4CC(=O)O)c2C)cn1 [Example 207, [(3S)-6-{[3-(6-methoxypyridin-3-yl)-2-methyl-4-(trifluoromethyl)benzyl]amino}-2,3-dihydro-1-benzofuran-3-yl]acetic acid]",121
21,"Cc1ccc(CNc2ccc3c(c2)OC[C@H]3CC(=O)O)c(C)c1-c1ccc2nc(C(F)(F)F)cn2c1 [Example 219, [(3S)-6-({2,4-dimethyl-3-[2-(trifluoromethyl)imidazo[1,2-a]pyridin-6-yl]benzyl}amino)-2,3-dihydro-1-benzofuran-3-yl]acetic acid]",125
22,"Cc1oc2cccnc2c1-c1cccc(CNc2ccc3c(c2)OC[C@H]3CC(=O)O)c1C [Example 221, [(3S)-6-{[2-methyl-3-(2-methylfuro[3,2-b]pyridin-3-yl)benzyl]amino}-2,3-dihydro-1-benzofuran-3-yl]acetic acid]",126
23,"Cc1oc2ncccc2c1-c1cccc(CNc2ccc3c(c2)OC[C@H]3CC(=O)O)c1C [Example 223, [(3S)-6-{[2-methyl-3-(2-methylfuro[2,3-b]pyridin-3-yl)benzyl]amino}-2,3-dihydro-1-benzofuran-3-yl]acetic acid]",111
24,"CCOc1nc2ccc(F)cc2n1-c1cccc2c1CCC2Nc1ccc2c(c1)OC[C@H]2CC(=O)[O-].[Na+] (stereo partly drawn) [Example 227, sodium [(3S)-6-{[4-(2-ethoxy-6-fluoro-1H-benzimidazol-1-yl)-2,3-dihydro-1H-inden-1-yl]amino}-2,3-dihydro-1-benzofuran-3-yl]acetate]",105
25,"CCCN(c1ccc(F)cn1)c1cccc(CNc2ccc3c(c2)OC[C@H]3CC(=O)O)c1C [Example 232, [(3S)-6-({3-[(5-fluoropyridin-2-yl)(propyl)amino]-2-methylbenzyl}amino)-2,3-dihydro-1-benzofuran-3-yl]acetic acid]",121
